Data reported in patent US20090054316A1, “AGENT FOR CONTROL OF FUNCTION OF ANTIGEN-PRESENTING CELL” (RIKEN, priority 2005, published 2009).

Assays:
[1] = system: bone marrow-derived dendritic cells (BMDC); experiment: Expression of MHC class I, class II and CD86 molecules on the cell surface of dendritic cells treated with a zinc ion chelator (FACS); format: cell-based, mouse; conditions: for expression of MHC class II molecule on BMDC: TPEN 0-2 μM for 6 to 12 hours (dose and treatment time dependency), LPS 100 ng/mL as activation control, FACS
Procedure: Dendritic cells, a type of antigen-presenting cells, were treated with N,N,N′,N′-tetrakis(2-pyridylmethyl)ethylenediamine (TPEN), a zinc ion chelator, and examined for the expression of MHC class I molecule, class II molecule and CD86 molecule on the cell surface.
(§1) Bone marrow cells were obtained from a C57BL/6 mouse (obtained from Clea Japan) and subjected to cell culture using an RPMI medium (SIGMA, R8758) supplemented with 10% FCS (EQUITECH-BIO Inc., #SFB-30-1388) and granulocyte macrophage colony stimulating factor (GM-CSF) in a 5% CO2 environment at 37° C. for 6 days to induce the differentiation of bone marrow-derived dendritic cells (BMDC). To this BMDC, TPEN (SIGMA, P4413) was added for 6 hours to 12 hours to obtain concentrations of 0-2 μM in the medium. Also prepared was a group in which lipopolysaccharide (LPS; 100 ng/mL; SIGMA, L2637, E. Coli O55:B5) was added for control of antigen-presenting cell activation. […] When the cells were treated with the zinc ion chelator, the expression of MHC class II molecule on BMDC was enhanced as with LPS.

dendritic cell = experiment: Dendritic cell activation or inactivation, same in vitro system as Examples 1 and 2; format: cell-based, mouse; conditions: treatment with 1-10 μM
Procedure: as §1
In the same experiment (in vitro system) as Examples 1 and 2, dendritic cell activation or inactivation was observed by a treatment with 1-10 μM zinc ion or TPEN.

[2] = dendritic cells treated with zinc ion chelator, FIG. 1

Compound | expression of MHC class II molecule on BMDC [1] | expression of CD86 molecule on the cell surface [1, 2] | expression of MHC class I molecule on the cell surface [1, 2] | dendritic cell activation or inactivation (dendritic cell)
c1ccc(CN(CCN(Cc2ccccn2)Cc2ccccn2)Cc2ccccn2)nc1 [TPEN, N,N,N′,N′-tetrakis(2-pyridylmethyl)ethylenediamine] | enhanced | enhanced | enhanced | observed
O=S(=O)([O-])[O-].[Zn+2] [zinc ion, ZnSO4] |  |  |  | observed
lipopolysaccharide [LPS] | enhanced |  |  | 
